Data reported in patent publication US11992011B2, “Compounds for controlling plant pathogens” (VIB VZW, priority 2017, dated 2024).

Legend:
Meloidogyne graminicola [1] = test: M. graminicola infection in wild type and OsWRKY45 knockdown rice (Example 16); format: in vivo; details: for Likelihood of necrosis / Fraction of empty galls / Fraction of small galls / Gall number / Galls per AR: MDCA/PA spray; for Fraction of empty galls / Fraction of small galls / Gall number / Galls per AR: median (interquartile range); for change of number of galls per root system, WRKY45 treated vs WRKY45 control: WRKY45-RNAi rice; for change of number of galls per root system, WT treated vs WT+CON: wild type rice
Description: (§1) Infection experiments with M. graminicola were performed by inoculating host plants 14 days after transfer to SAP by introducing the desired amount of J2 juveniles next to the root system using a micro pipette. Rice plants (cv. Nipponbare or Kitaake) were inoculated with 250 J2 juveniles per plant; wheat plants (cv. Sahara) were inoculated with 600 J2 juveniles per plant. Plants were harvested 14 days after inoculation. At this point, the plants were phenotyped by measuring the shoot and root length with a ruler, counting the number of adventitious roots and in some experiments by measuring leaf area using the EasyLeafArea software (Easlon and Bloom, 2014) and by determining shoot dry mass after 72 hours of drying in an oven at 70° C. Root systems were then stained in acid fuchsine as described in (Byrd et al., 1983) and left to destain in glycerol with 1 ml/l fuming HCl added for approximately ten days. The number of galls and nematodes was then counted using a binocular microscope.
To test the potential involvement of salicylic acid (SA) in MDCA/PA defense enhancement the response of MDCA/PA-treated RNAi-knockdown mutants in OsWRKY45 to nematode infection was examined. The OsWRKY proteins form a family of rice transcription factors that regulate a broad range of cellular processes, most of which are related to abiotic and biotic stress response (Jimmy and Babu, 2015). In keeping with their important role in defense, many OsWRKY genes are controlled by the plant defense hormones jasmonic acid and SA (Ryu et al., 2006; Jimmy and Babu, 2015).
OsWRKY45 is a master regulator of SA-induced defense responses. Knockdown lines in this gene are useful for testing whether MDCA/PA defense enhancement depends on SA signaling, as OsWRKY45 (unlike most other defense genes) is believed to be triggered only by SA (Ryu et al. 2006; incorporated by reference).
Galls were counted and classified by their size and by whether they were empty or not. The presence or absence of necrosis in the root system was also recorded.

OsPAL2 = test: qRT-PCR in rice roots, OsPAL2 (Example 19); format: in vivo, Oryza sativa; details: rice cv. Bomba root tissue; 100 μM; harvested 13 days after germination; N=3 pools
Description: (§2) After quality control, qPCR was carried out.

OsPAL4 = test: qRT-PCR in rice roots, OsPAL4 (Example 19); format: in vivo, Oryza sativa; details: rice cv. Bomba root tissue; 100 μM; harvested 13 days after germination; N=3 pools
Description: as §2

Meloidogyne graminicola [2] = test: Meloidogyne graminicola infection in rice cv. Kitaake, additional C4H inhibitors (Example 6); format: in vivo; details: foliar spray, N=8
Description: Unless otherwise mentioned, all chemicals for nematode experiments were applied as a foliar spray consisting of the target compound at a concentration of 300 μM together with 0.1% (v/v) Tween 20 surfactant (Calbiochem) in distilled water. Again unless otherwise mentioned, all treatments for the nematode experiments were carried out three times: one and eight days before pathogen inoculation and seven days after pathogen inoculation. In all cases, plants were sprayed until run-off with an atomizer.
as §1
Four different C4H inhibitors were used: piperonylic acid (PA), piperine (PIP), 4-propynyloxybenzoic acid (4PB) and 3-(4-pyridyl)acrylic acid (3PA).

Heterodera schachtii = Heterodera schachtii infection in sugar beet (Example 9); format: in vivo; details: 10 μM PA
Description: Sugar beet seeds (cultivar Jolgeh) were germinated for five days at 25° C. on sterile potting soil saturated with distilled water. Seedlings were transferred to SAP tubes, which were placed in a growth chamber at 24° C. (16h per day of fluorescent lighting). The first two days after transfer, the tubes were covered with a polyethylene film (Saran Film, Dow Chemicals, Midland, USA) to prevent excessive evaporation. Seedlings were watered three times per week with 8 ml of Hoagland solution.
Cysts were collected from sugar beets (cv. Jolgeh) kept in a growing chamber at 21° C. through a flotation protocol. Plant roots and their surrounding soil were placed in a water bath at room temperature and gently agitated, followed by decanting and sieving to allow collection of cysts. Cysts were are-dried for two days and stored until use.
Hatching of cysts was induced by exposing them to a zinc chloride solution (3 mM in distilled water) at 25° C. for three days. Five 100 μl samples were taken from this suspension. The number of J2 juveniles in each sample was counted and the results were averaged. Sugar beet plants were inoculated fourteen days after transfer to SAP with the required volume of suspension to inoculate each plant with an average of 250 J2 nematodes.
Infection experiments with H. schachtii were performed by inoculating host plants 14 days after transfer to SAP by introducing 250 J2 juveniles to their root system using a micro pipette. Plants were harvested 31 days after inoculation. At this point, the plants were phenotyped by measuring the root and shoot length with a ruler. Cysts were collected through a sucrose flotation protocol and then counted and microscopically assessed for maturity.
To test whether the compounds of the invention are effective against other nematodes and in other plant species, PA was tested on the interaction between the dicot crop sugar beet (Beta vulgaris) and the cyst nematode Heterodera schachtii. At this point, it was not known whether dicots would tolerate PA as well as monocots and so a much lower dose (10 μM) was used instead.

Meloidogyne incognita = test: M. incognita infection in NahG-expressing tomato (Example 17); format: in vivo
Description: Infection experiments with M. incognita were performed in the same manner as those with M. graminicola, except that plants were harvested 31 days after inoculation instead of 14 days. At this point, the plants were phenotyped by measuring the root length with a ruler and in some experiments by measuring leaf area using the EasyLeafArea software (Easlon and Bloom, 2014) and by determining shoot dry mass after 72 hours of drying in an oven at 70° C. Galls were stained and counted as described above.
To evaluate this further, a tomato line deficient in salicylic acid biosynthesis and signaling respectively was treated with PA. […] If this line still responds to PA, it further strengthens the notion that salicylic acid accumulation is not the cause of C4H inhibitor-induced nematode resistance, for which evidence in rice was already provided in Example 16.

[3] = infected sugar beet, mean ± SD, n = 8

Row | SMILES | Likelihood of necrosis (Meloidogyne graminicola [1]; WRKY45-RNAi knockdown rice) | Fraction of empty galls (Meloidogyne graminicola [1]; WRKY45-RNAi knockdown rice) | Fraction of small galls (Meloidogyne graminicola [1]; WRKY45-RNAi knockdown rice) | Gall number (Meloidogyne graminicola [1]; WRKY45-RNAi knockdown rice) | Galls per AR (Meloidogyne graminicola [1]; WRKY45-RNAi knockdown rice) | change of number of galls per root system, WRKY45 treated vs WRKY45 control (Meloidogyne graminicola [1]) | Likelihood of necrosis (Meloidogyne graminicola [1]; Wild type rice) | Fraction of empty galls (Meloidogyne graminicola [1]; Wild type rice) | Fraction of small galls (Meloidogyne graminicola [1]; Wild type rice) | Gall number (Meloidogyne graminicola [1]; Wild type rice) | Galls per AR (Meloidogyne graminicola [1]; Wild type rice) | change of number of galls per root system, WT treated vs WT+CON (Meloidogyne graminicola [1]) | Fold change vs. control, OsPAL2 expression (OsPAL2) | Fold change vs. control, OsPAL4 expression (OsPAL4) | also measured
1 | O=C(O)/C=C/c1ccc2c(c1)OCO2 [MDCA, 3,4-methylenedioxycinnamic acid] | 0.50 ± 0.53 | 0.09 (0.01) | 0.94 (0.03) | 52.0 (10.8) | 3.3 (0.7) | −23% | 0.63 ± 0.52 | 0.02 (0.04) | 0.86 (0.07) | 36.5 (10.3) | 2.3 (0.6) | −42% | 1.86 | 2.38 | –
2 | O=C(O)c1ccc2c(c1)OCO2 [PA, Piperonylic acid] | 0.60 ± 0.52 | 0.02 (0.03) | 0.91 (0.05) | 39.0 (20.3) | 2.2 (0.8) | −41% | 0.78 ± 0.44 | 0.03 (0.03) | 0.93 (0.06) | 33.0 (10.0) | 1.8 (0.5) | −42% | 1.29 | 3.04 | reduction in the number of galls compared to the control group (Meloidogyne graminicola [2]): −40%; Number of mature cysts (Heterodera schachtii; [3]): 7.5 ± 4.4; Proportion of mature cysts (Heterodera schachtii; [3]): 0.48 ± 0.25; Total number of cysts (Heterodera schachtii; [3]): 15.3 ± 0.7; reduction of the number of Heterodera schachtii nematodes (Heterodera schachtii; sugar beet, statistically insignificant): 20%; change of number of galls, PA-treated NahG plants vs untreated wild type plants (Meloidogyne incognita; NahG-expressing (SA-deficient) tomato): −36%; difference in number of galls, PA-treated NahG plants vs PA-treated wild type plants (Meloidogyne incognita; NahG-expressing tomato, not significant): +9%
